Reference: patent publication US7772252B2, “Heterocyclic substituted carbonyl derivatives and their use as dopamine D3 receptor ligands” (Aventis Pharmaceuticals Inc., priority 2001, dated 2010)
Read-outs that look alike come from different tables or passages of the source.

Molecular target: T1, cloned human dopamine D3 receptors (Homo sapiens, UniProt P35462)
T1 construct: expressed in transfected cells; membrane homogenate
Test: [N-Methyl-3H]Spiroperidol binding to cloned human dopamine D3 receptors
Procedure, shortened: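 Radioligand displacement with [N-methyl-3H]spiroperidol was run on membranes from a high-expressing CHO clone carrying human D3. Membranes were prepared in 10% DMSO and stored at −80° C.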

T1 sequence (P35462 whole entry): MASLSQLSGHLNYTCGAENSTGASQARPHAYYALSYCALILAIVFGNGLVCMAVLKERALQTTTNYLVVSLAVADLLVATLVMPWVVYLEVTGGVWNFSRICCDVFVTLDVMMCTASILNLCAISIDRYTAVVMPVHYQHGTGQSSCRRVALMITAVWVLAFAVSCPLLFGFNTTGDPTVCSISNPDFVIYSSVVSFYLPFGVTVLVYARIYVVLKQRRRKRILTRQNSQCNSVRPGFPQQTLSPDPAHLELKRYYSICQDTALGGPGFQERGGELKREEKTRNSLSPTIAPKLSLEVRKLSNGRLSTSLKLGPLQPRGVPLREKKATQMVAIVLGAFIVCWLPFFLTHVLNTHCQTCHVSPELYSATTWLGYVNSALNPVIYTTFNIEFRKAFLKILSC

| SMILES | Ki (read-out: D3 Ki) [nM] | Ki (read-out: d3Ki) [nM] |
| --- | --- | --- |
| O=C(C1CC1CN1CCC(c2noc3ccsc23)CC1)N1CCN(S(=O)(=O)Cc2ccccc2)CC1 (racemic) [compound 831837] | 491 | – |
| O=C(C1CC1CN1CCC(c2noc3ccsc23)CC1)N1CCN(S(=O)(=O)c2ccccc2)CC1 (racemic) [compound 831835] | 234 | – |
| CCC1CCC(NC(=O)C2CC2CN2CCC(n3c(=O)[nH]c4ccccc43)CC2)CC1 (racemic) [compound 827250] | 45.2 | – |
| Cn1nc(C2CCN(C[C@@H]3C[C@H]3C(=O)N3CCC[C@@H](Cn4ccnc4)C3)CC2)c2ccc(C(F)(F)F)cc21 [A002437353, (3S-Imidazol-1-ylmethyl-piperidin-1-yl)-{2R-[4-(1-methyl-6-trifluoromethyl-1H-indazol-3-yl)-piperidin-1-ylmethyl]-1R-cyclopropyl}-methanone] | 0.937 | – |
| CN1CCN(C(=O)C2CC2CN2CCC(c3noc4ccsc34)CC2)CC1 (racemic) [compound 829590] | 109 | – |
| CC1(C)CCCN(C(=O)CCCN2CCN(c3csc4cc(C(F)(F)F)ccc34)CC2)C1 [compound 826817] | – | 20 |
| O=C(NCCCN1CCOCC1)C1(CCN2CCN(c3csc4cc(C(F)(F)F)ccc34)CC2)CC1 [compound 832518] | 98.2 | – |
| O=C(c1ccc(Cl)cc1)C1CCN(C(=O)[C@@H]2C[C@H]2CN2CCN(c3csc4cc(C(F)(F)F)ccc34)CC2)CC1 [compound 831882] | 57.3 | – |
| CN1C2CCC1CC(NC(=O)[C@@H]1C[C@H]1CN1CCN(c3csc4cc(C(F)(F)F)ccc34)CC1)C2 (stereo partly shown) [A002439099] | 4.91 | – |
| C[C@H]1CC[C@H](NC(=O)[C@@H]2CC[C@H]2CN2CCN(c3noc4ccsc34)CC2)CC1 (racemic) [compound 829996] | 277 | – |
| C[C@H]1CC[C@H](NC(=O)[C@@H]2CC[C@H]2CN2CCCN(c3noc4ccsc34)CC2)CC1 (racemic) [compound 830000] | 286 | – |
| COc1cccc2c(C3CCN(C[C@@H]4C[C@H]4C(=O)NC4CC5CCC(C4)N5C)CC3)nn(C)c12 (stereo partly shown) [A002328939] | 201 | – |
| CCC1CCC(NC(=O)C2CC2CN2CCC(c3noc4cc(Cl)ccc34)CC2)CC1 (racemic) [compound 829363] | 63.9 | – |
| COc1ccc2c(c1)c(N1CCN(C[C@@H]3C[C@H]3C(=O)NCCCc3ccccc3)CC1)nn2-c1ccc(C(F)(F)F)cc1 [compound 831314] | 133 | – |
| C[C@H]1CC[C@H](NC(=O)[C@@H]2C[C@H]2CN2CCC(c3n[nH]c4cc(Br)ccc34)CC2)CC1 [compound 833694] | 46.9 | – |
| O=C([C@@H]1C[C@H]1CN1CCC(c2cc3ccccc3s2)CC1)N1CCC(N2CCCC2)CC1 [compound 832715] | 166 | – |
| COc1cccc2c(C3CCN(C[C@@H]4C[C@H]4C(=O)NCCCn4ccnc4)CC3)nn(C)c12 [compound 834058] | 91.4 | – |
| CC[C@H]1CC[C@H](NC(=O)CCCN2CCN(c3csc4cc(C(F)(F)F)ccc34)CC2)CC1 [compound 826806] | – | 40 |
| Cn1nc(C2CCN(C[C@@H]3C[C@H]3C(=O)NCC3CCN(C(=O)OC(C)(C)C)CC3)CC2)c2sccc21 [A002438641] | 62.8 | – |
| O=C(N[C@H]1CC[C@H](O)CC1)[C@@H]1C[C@H]1CN1CCC(c2nn(-c3ccc(C(F)(F)F)cc3)c3ccccc23)CC1 [compound 831953] | 37.4 | – |
| Cn1nc(C2CCN(C[C@@H]3C[C@H]3C(=O)N[C@H]3CC[C@H](C)CC3)CC2)c2ccc(Br)cc21 [compound 833693] | 18.4 | – |
| O=C(NCCCN1CCCC1=O)[C@@H]1C[C@H]1CN1CCC(c2noc3ccsc23)CC1 [compound 830832] | 67.7 | – |
| Cn1nc(C2CCN(C[C@@H]3C[C@H]3C(=O)N[C@H]3CC[C@H](O)CC3)CC2)c2cccc(C(F)(F)F)c21 [compound 833080] | 22.9 | – |
| CCC1CCC(NC(=O)C2CC2CN2C3CCC2CC(c2n[nH]c4cc(F)ccc24)C3)CC1 (stereo not shown) [compound 830130] | 6.68 | – |
| O=C(NCCCN1CCOCC1)C1(CCN2CCC(c3noc4ccsc34)CC2)CC1 [compound 832240] | 186 | – |
| CCN(C(=O)CCCN1CCCN(c2csc3cc(F)ccc23)CC1)C1CCCCC1 [compound 826829] | – | 1.5 |
| C[C@H]1CC[C@H](NC(=O)[C@@H]2C[C@H]2CN2CCC(c3n[nH]c4ccc(C(F)(F)F)cc34)CC2)CC1 [compound 833934] | 0.633 | – |
| CC1CCC(NC(=O)C2CC2CN2CCN(c3noc4ccsc34)CC2)CC1 (racemic) [compound 830127] | 1.66 | – |
| O=C(NCCc1ccccc1)C1(CCN2CCC(c3noc4ccsc34)CC2)CC1 [compound 832180] | 91 | – |

The next lines start with the values.

| Ki (read-out: D3 Ki) [nM] | Ki (read-out: d3Ki) [nM] | SMILES |
| --- | --- | --- |
| 1.84 | – | Cc1cccc(CN2CCC(NC(=O)[C@@H]3C[C@H]3CN3CCC(c4noc5ccsc45)CC3)CC2)c1 [compound 832788] |
| 45 | – | O=C(C1CC1CN1CCC(c2noc3ccsc23)CC1)N1CCC(c2cc(-c3cccs3)[nH]n2)CC1 (racemic) [compound 831703] |
| 4.9 | – | O=C(NCCCn1ccnc1)C1(CCN2CCC(c3noc4ccsc34)CC2)CC1 [compound 832171] |
| 0.629 | – | Cn1nc(C2CCN(C[C@@H]3C[C@H]3C(=O)NCCCn3ccnc3)CC2)c2sccc21 [A002436291, 2R-[4-(1-Methyl-1H-thieno[3,2-c]pyrazol-3-yl)-piperidin-1-ylmethyl]-1R-cycloproanecarboxylic acid (3-imidazol-1-yl-propyl)-amide] |
| 7.63 | – | O=C(NCCCn1ccnc1)[C@@H]1C[C@H]1CN1CCN(c2nn(-c3ccc(C(F)(F)F)cc3)c3ccsc23)CC1 [compound 832634] |
| 21.7 | – | O=C(C1CC1CN1CCC(c2noc3ccsc23)CC1)N1CCN(CCc2ccccc2)CC1 (racemic) [compound 832057] |
| 12.9 | – | O=C(NC1CCN(Cc2cc(F)ccc2Cl)CC1)C1CC1CN1CCC(c2noc3ccsc23)CC1 (racemic) [compound 832346] |
| 7.81 | – | O=C(NCCCc1cc[nH]c1)C1CC1CN1CCC(c2noc3ccsc23)CC1 (racemic) [compound 832192] |
| 10.1 | – | CC(C)N1CCN(C(=O)C2CC2CN2CCC(c3noc4ccsc34)CC2)CC1 (racemic) [compound 832188] |
| 1.36 | – | COc1ccc2c(c1)c(N1CCN(C[C@@H]3C[C@H]3C(=O)NC3CCN(Cc4cccc(Cl)c4)CC3)CC1)nn2C [compound 833836] |
| 17.1 | – | COc1c(F)ccc2c(C3CCN(C[C@H]4C[C@@H]4C(=O)N[C@H]4CC[C@H](C)CC4)CC3)noc12 [compound 831360] |
| 0.76 | – | Cn1nc(N2CCN(C[C@@H]3C[C@H]3C(=O)NCCCn3ccnc3)CC2)c2sccc21 [compound 831830] |
| 5.68 | – | O=C(NC[C@@H]1CCNC1)[C@@H]1C[C@H]1CN1CCC(c2noc3ccsc23)CC1 [compound 833384] |
| 55.7 | – | NS(=O)(=O)c1ccc(CCNC(=O)C2CC2CN2CCC(c3noc4ccsc34)CC2)cc1 (racemic) [compound 831701] |
| 4.16 | – | CCC1CCC(NC(=O)C2CC2CN2CCN(c3nn(-c4ccccc4)c4cc(F)ccc34)CC2)CC1 (racemic) [compound 830129] |
| 12.4 | – | O=C(NCCCN1CCCCC1)[C@@H]1C[C@H]1CN1CCC(c2cc3ccccc3s2)CC1 [compound 832714] |
| 2.17 | – | Cn1nc(N2CCN(C[C@@H]3C[C@H]3C(=O)NC3CCN(Cc4ccc(F)c(F)c4)CC3)CC2)c2sccc21 [A002436428] |
| 1.61 | – | O=C(NC1CCN(Cc2ncc[nH]2)CC1)[C@@H]1C[C@H]1CN1CCN(c2csc3cc(C(F)(F)F)ccc23)CC1 [compound 832583] |

| Ki (read-out: D3 Ki) [nM] | Ki (read-out: d3Ki) [nM] | SMILES |
| --- | --- | --- |
| 4.73 | – | O=C(NC1CCN(Cc2cccc(Cl)c2)CC1)C1CC1CN1CCC(c2noc3ccsc23)CC1 (racemic) [compound 831995] |
| 1.24 | – | O=C(NCCCN1CCCCC1)[C@@H]1C[C@H]1CN1CCC(c2csc3cc(C(F)(F)F)ccc23)CC1 [compound 834015] |
| 14.3 | – | O=C(NCC1CCNCC1)[C@@H]1C[C@H]1CN1CCN(c2csc3cc(C(F)(F)F)ccc23)CC1 [compound 832859] |
| 7.22 | – | O=C(NCCCN1CCCCC1)[C@@H]1C[C@H]1CN1CCC(c2csc3c(C(F)(F)F)cccc23)CC1 [compound 833686] |
| 3.19 | – | O=C(NCCc1c[nH]c2cc(F)ccc12)[C@@H]1C[C@H]1CN1CCC(c2noc3ccsc23)CC1 [compound 830831] |
| 4.16 | – | Cn1nc(N2CCN(C[C@@H]3C[C@H]3C(=O)NC3CCN(Cc4cc(F)ccc4F)CC3)CC2)c2sccc21 [A002436429] |
| 0.241 | – | C[C@H]1CC[C@H](NC(=O)[C@@H]2C[C@H]2CN2CCC(c3noc4ccc(C(F)(F)F)cc34)CC2)CC1 [compound 834012, 2R-[4-(5-Trifluoromethyl-benzo[d]isoxazol-3-yl)-piperidin-1-ylmethyl]-cyclopropane-1R-carboxylic acid trans-(4-methyl-cyclohexyl)-amide] |
| 8.84 | – | O=C([C@@H]1C[C@H]1CN1CCN(c2csc3cc(C(F)(F)F)ccc23)CC1)N1CCC[C@H](Cn2ccnc2)C1 [compound 833098] |
| 0.432 | – | O=C(NCCCN1CCOCC1)[C@@H]1C[C@H]1CN1CCN(c2csc3cc(C(F)(F)F)ccc23)CC1 [compound 831492] |
| 17.6 | – | COc1ccc2[nH]nc(N3CCN(CC4CC4C(=O)NC4CCC(C)CC4)CC3)c2c1 (racemic) [compound 830439] |
| 5.91 | – | Cn1nc(N2CCN(C[C@@H]3C[C@H]3C(=O)N[C@H]3CC[C@H](O)CC3)CC2)c2sccc21 [8319560A] |
| 6.32 | – | O=C(NCCCN1CCCCC1)[C@@H]1C[C@H]1CN1CCC(c2nsc3cc(Br)ccc23)CC1 [A002329100] |
| 1.38 | – | O=C(NC1CCN(Cc2cccc3ccccc23)CC1)C1CC1CN1CCC(c2noc3ccsc23)CC1 (racemic) [compound 831822] |
| 8.44 | – | O=C(NC1CCN(Cc2ccncc2)CC1)C1CC1CN1CCC(c2noc3ccsc23)CC1 (racemic) [compound 832393] |
| 52.9 | – | COc1ccc2c(c1)c(N1CCN(C[C@@H]3C[C@H]3C(=O)N3CCN(C(C)C)CC3)CC1)nn2C [compound 833122] |
| 45.4 | – | COc1ccc2c(c1)c(N1CCN(C[C@@H]3C[C@H]3C(=O)NCC3CCN(C(C)=O)CC3)CC1)nn2C [compound 833197] |
| 17.5 | – | O=C(NC1CCN(C(=O)Nc2ccc(F)cc2)CC1)C1CC1CN1CCC(c2noc3ccsc23)CC1 (racemic) [832576ES] |
